Measurements as given in patent US12371454B2, “Cyclic peptide compound having Kras inhibitory action” (priority 2019, dated 2025).
Positions of bridges follow the written chain, without caps; N, C: chain ends. Non-standard residues stand in square brackets, D forms with d. Residues, ends and D or L forms follow the SMILES beside them. *: point of attachment. hPhe(3-Cl-4-CF3) = N[C@@H](CCc1ccc(C(F)(F)F)c(Cl)c1)C(=O)O; hPhe(3-F,4-CF3) = N[C@@H](CCc1ccc(C(F)(F)F)c(F)c1)C(=O)O; NMePhe(4-Me) = CN[C@@H](Cc1ccc(C)cc1)C(=O)O; NMePhe(4-F) = CN[C@@H](Cc1ccc(F)cc1)C(=O)O; NMeGly(cPent) = CN[C@H](C(=O)O)C1CCCC1; Phe(3-I) = N[C@@H](Cc1cccc(I)c1)C(=O)O; NMeAla(cPr) = CN[C@@H](CC1CC1)C(=O)O; NMeCha = CN[C@@H](CC1CCCCC1)C(=O)O; NMeI = CC[C@H](C)[C@H](NC)C(=O)O; Gly(cPr) = N[C@H](C(=O)O)C1CC1; NMeD = CN[C@@H](CC(=O)O)C(=O)O; NMeL = CN[C@@H](CC(C)C)C(=O)O; NMeV = CN[C@H](C(=O)O)C(C)C; d(β3hA) = C[C@@H](N)CC(=O)O; Morpholide = C1CN(*)CCO1; NMeA = CN[C@@H](C)C(=O)O; NMeAib = CNC(C)(C)C(=O)O; Piperidide = C1CCN(*)CC1; Pra = C#CC[C@H](N)C(=O)O; Ac5c = NC1(C(=O)O)CCCC1; Aze = O=C(O)[C@@H]1CCN1; NEtG = CCNCC(=O)O; Sar = CNCC(=O)O

Molecular target: T1, Kras and SOS1 (biotin-tagged human Kras loaded with GDP, His-tagged human SOS1) (Homo sapiens, UniProt P01116, G12D)
T1 construct: made in house; host or cells: E. coli (stated for Kras only)
T1 sequence (P01116 1-188 isoform P01116-2 G12D): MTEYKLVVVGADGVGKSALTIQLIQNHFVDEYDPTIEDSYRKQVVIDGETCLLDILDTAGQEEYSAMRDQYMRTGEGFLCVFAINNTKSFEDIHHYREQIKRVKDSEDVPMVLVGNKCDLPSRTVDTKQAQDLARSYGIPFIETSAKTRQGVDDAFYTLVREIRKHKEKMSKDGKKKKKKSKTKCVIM
Experiment: Protein-protein interaction inhibition between Kras and SOS1 (KrasGl2D-SOS PPI) using AlphaScreen
Format: binding
Conditions: AlphaScreen; biotin-tagged human Kras loaded with GDP, His-tagged human SOS1; read-out: KRAS G12D-SOS PPI IC50
Summary of the method: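 Energy transfer from nickel-chelate donor beads bound to His-SOS1 to streptavidin acceptor beads bound to biotin-Kras, expressed in E. coli and loaded with GDP after purification, was monitored. Donors were excited at 680 nm; singlet oxygen reaching acceptors gave emission read at 520-620 nm.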

SMILES	IC50 [nM]
CC[C@H](C)[C@@H]1NC(=O)[C@H](CC(C)C)N(C)C(=O)C[C@@H](C)NC(=O)[C@H](C2CCCC2)N(C)C(=O)C2(CCCC2)NC(=O)[C@@H](C)NC(=O)[C@H](CCc2ccc(C(F)(F)F)c(Cl)c2)NC(=O)CN(C)C(=O)[C@H](Cc2ccc(C)cc2)N(C)C(=O)[C@@H]2CCN2C(=O)[C@H](C)N(C)C1=O [Compound 1328] (cyclo([Ac5c][NMeGly(cPent)][d(β3hA)][NMeL]I[NMeA][Aze][NMePhe(4-Me)][Sar][hPhe(3-Cl-4-CF3)][dA]))	220
C#CC[C@@H]1NC(=O)[C@H](Cc2cccc(I)c2)NC(=O)CN(C)C(=O)[C@H](Cc2ccc(F)cc2)N(C)C(=O)[C@@H]2CCN2C(=O)[C@H](C)N(C)C(=O)[C@H]([C@@H](C)CC)NC(=O)[C@H](CC(C)C)N(C)C(=O)C[C@@H](C(=O)N2CCCCC2)N(C)C(=O)[C@H](CC(C)C)NC(=O)C(C)(C)N(C)C1=O [Compound 1230] ([NMeL]I[NMeA][Aze][NMePhe(4-F)][Sar][Phe(3-I)][Pra][NMeAib]L[NMeD]-Piperidide; lactam N-11)	98
CC[C@H](C)[C@@H]1NC(=O)[C@H](CC(C)C)N(C)C(=O)C[C@@H](C(=O)N2CCCCC2)N(C)C(=O)[C@H](C(C)C)N(C)C(=O)C2(CCCC2)NC(=O)[C@@H]2CCCN2C(=O)[C@H](CCc2ccc(C(F)(F)F)c(Cl)c2)NC(=O)CN(C)C(=O)[C@H](CC2CC2)N(C)C(=O)CN(C)C(=O)CN(C)C1=O [Compound 325] ([NMeL]I[Sar][Sar][NMeAla(cPr)][Sar][hPhe(3-Cl-4-CF3)]P[Ac5c][NMeV][NMeD]-Piperidide; lactam N-11)	14
CC[C@H](C)[C@@H]1NC(=O)[C@H](CC(C)C)N(C)C(=O)C[C@@H](C)NC(=O)[C@H](C)N(C)C(=O)C2(CCCC2)NC(=O)[C@@H]2CCCN2C(=O)[C@H](CCc2ccc(C(F)(F)F)c(Cl)c2)NC(=O)CN(C)C(=O)[C@H](Cc2ccc(C)cc2)N(C)C(=O)[C@@H]2CCN2C(=O)[C@H](C)N(C)C1=O [Compound 1239] (cyclo([Ac5c][NMeA][d(β3hA)][NMeL]I[NMeA][Aze][NMePhe(4-Me)][Sar][hPhe(3-Cl-4-CF3)]P))	180
CC(C)C[C@H]1C(=O)N[C@@H](C2CC2)C(=O)N(C)CC(=O)N(C)CC(=O)N(C)[C@@H](CC2CCCCC2)C(=O)N(C)CC(=O)N[C@@H](CCc2ccc(C(F)(F)F)c(Cl)c2)C(=O)N2CCC[C@H]2C(=O)NC2(CCCC2)C(=O)N(C)[C@@H](C(C)C)C(=O)N(C)[C@H](C(=O)N2CCCCC2)CC(=O)N1C [Compound 533] ([NMeL][Gly(cPr)][Sar][Sar][NMeCha][Sar][hPhe(3-Cl-4-CF3)]P[Ac5c][NMeV][NMeD]-Piperidide; lactam N-11)	8.5
CC[C@H](C)[C@@H]1NC(=O)[C@H](CC(C)C)N(C)C(=O)C[C@@H](C)NC(=O)[C@H](C(C)C)N(C)C(=O)C2(CCCC2)NC(=O)[C@@H]2CCCN2C(=O)[C@H](CCc2ccc(C(F)(F)F)c(F)c2)NC(=O)CN(C)C(=O)[C@H](CC2CCCCC2)N(C)C(=O)CN(C)C(=O)CN(C)C1=O [Compound 1534] (cyclo([Ac5c][NMeV][d(β3hA)][NMeL]I[Sar][Sar][NMeCha][Sar][hPhe(3-F,4-CF3)]P))	62
CC[C@H](C)[C@@H]1NC(=O)[C@H](CC(C)C)N(C)C(=O)C[C@@H](C(=O)N2CCOCC2)N(C)C(=O)[C@H]([C@@H](C)CC)N(C)C(=O)C2(CCCC2)NC(=O)[C@@H]2CCCN2C(=O)[C@H](CCc2ccc(C(F)(F)F)c(Cl)c2)NC(=O)CN(C)C(=O)[C@H](CC2CCCCC2)N(C)C(=O)CN(C)C(=O)CN(C)C1=O [Compound 1979] ([NMeL]I[Sar][Sar][NMeCha][Sar][hPhe(3-Cl-4-CF3)]P[Ac5c][NMeI][NMeD]-Morpholide; lactam N-11)	0.64
CC[C@H](C)[C@@H]1NC(=O)[C@H](CC(C)C)N(C)C(=O)C[C@@H](C)NC(=O)[C@H](C(C)C)N(C)C(=O)C2(CCCC2)NC(=O)[C@@H]2CCCN2C(=O)[C@H](CCc2ccc(C(F)(F)F)c(Cl)c2)NC(=O)CN(C)C(=O)[C@H](CC2CCCCC2)N(C)C(=O)CN(CC)C(=O)CN(C)C1=O [Compound 504] (cyclo([Ac5c][NMeV][d(β3hA)][NMeL]I[Sar][NEtG][NMeCha][Sar][hPhe(3-Cl-4-CF3)]P))	53
